Results reported in patent US20160215348A1, “GENE EXPRESSION BIOMARKERS AND THEIR USE FOR DIAGNOSTIC AND PROGNOSTIC APPLICATION IN PATIENTS POTENTIALLY IN NEED OF HDAC INHIBITOR TREATMENT” (4SC AG, priority 2013, published 2016).

Test system: ZFP64
Experiment: qPCR relative expression (vs cycle 1, day 1, hour 0) in patients' whole blood
Type: in vivo, human
Settings: HCC patients; Sorafenib 400 mg added to Resminostat 600 mg
Procedure: 2.5 ml whole blood from patients was collected in PAXgene™ tubes (BD Biosciences) that contain chemicals to lyse the erythrocytes, stabilize RNA from degradation by RNases and minimize ex vivo changes in gene expression. The samples were incubated at 20° C. to 25° C. for 2 hours and then frozen at −20° C. until purification of total RNA.
Total RNA was isolated from the whole blood samples stabilized in PAXgene™ buffer using a spin column based technique suitable for whole blood samples (like PAXgene™ Blood miRNA Kit or PAXgene™ Blood RNA Kit from Qiagen) according to the manufacturer's instructions. The purification began with a centrifugation step to pellet nucleic acids in the (PAXgene™ Blood RNA) tube. The resuspended pellet was incubated in buffers, optimized for maintenance of RNA stability together with proteinase K to bring about protein digestion. An additional centrifugation through the PAXgene™ Shredder spin column was carried out to homogenize the cell lysate and remove residual cell debris, and the supernatant of the flow-through fraction was transferred to a fresh microcentrifuge tube. Ethanol was added to adjust binding conditions, and the lysate was applied to a PAXgene™ RNA spin column. During a brief centrifugation, RNA was selectively bound to the PAXgene™ silica membrane as contaminants pass through. Remaining contaminants were removed in several efficient wash steps. Between the first and second wash steps, the membrane was treated with DNase I, as described herein below in 1.3 to remove trace amounts of bound DNA. After the wash steps, RNA was eluted in nuclease free water and heat-denatured.
The High-Capacity cDNA Reverse Transcription Kit (Applied Biosystems) was used for reverse transcription of total RNA into single stranded cDNA with the aid of random hexamer primers according to the manufacturer's instructions. Briefly, for the reaction mix total RNA was mixed with random primers in excess, 4 mM dNTP Mix, 2.5 U/reaction, reverse transcriptase and nuclease free water. The reverse transcription took place in a thermal cycler under the following conditions: 25° C. for 10 min, 37° C. for 120 min, 85° C. for 5 min, followed by 4° C. for cooling down the reaction. The reverse transcription can be done in principle as well with other reverse transcriptases, primers and temperature protocols. Whenever possible, 250 ng total RNA were reverse transcribed if not available, lower amounts were used.
Custom TaqMan® Arrays (Applied Biosystems) in Format 16 were designed for the gene expression analysis of biomarkers of the present invention and housekeeping genes as outlined in table 4. These arrays allow for qPCR analysis of 8 samples per card. Of course, all reactions can be done as well by conventional qPCR analysis with specific primers.
The reaction mix was transferred into the reaction chambers by centrifuging twice for 1 minute each at 330 g and 4° C. After sealing, the microfluidic cards were run on an AB7900HT instrument (Applied Biosystems). The software SDS 2.4 (Applied Biosystems) was employed for instrument control, data acquisition and raw data analysis. The plates were run in Relative Quantification (ΔΔCt) mode, and the following temperature profile was used:
This analysis was carried out for each patient separately. The first sample (cycle 1, day 1, hour 0) was used as the reference sample. The ‘exprs’ value indicates relative expression levels (fold change values) for individual samples.
Table 5 contains the median expression level values for treatment day 5 (cycle 1, day 5, hours 0, 2, and 5) at a daily dose of 600 mg or 800 mg Resminostat mesylate salt is given below.

Q: With `CNC(=O)c1cc(Oc2ccc(NC(=O)Nc3ccc(Cl)c(C(F)(F)F)c3)cc2)ccn1` [sorafenib, reference compound] as the compound, how does the “Effect of additional administration on ZFP64 expression (FIG. 4b)” value read?
A: The value was “does not affect”.
